Laboratory results as given in patent publication US7951815B2, “Substituted 1,4,8-triazaspiro [4,5]decan-2-one compounds” (Gruenenthal GmbH, priority 2004, dated 2011).
Several values for one entry are separate records, joined by “and”; a condition that tells them apart may be missing. Equal values may be shown once. Read-outs that look alike come from different tables or passages of the source.

Legend:
[1] = test system: batrachotoxin (BTX) binding site of the sodium channel; assay: Affinity to the batrachotoxin (BTX) binding site of the sodium channel; conditions: rat cerebrocortex synaptosomes, test concentration not given
5-HT transporter = molecular target: T1, 5-HT transporter (Rattus norvegicus, UniProt P31652); assay: Inhibition of 5-HT uptake in rat brain synaptosomes; type: biochemical; conditions: rat, 1 μM; for inhibition at 1 µM: read-out: Uptake 5-HT, % inhibition
T1 construct: synaptosomes of rat brain areas are freshly isolated; from tissue; host or cells: rat brain synaptosomes (P2 fraction) from marrow and pons

NA transporter = assay: Inhibition of noradrenaline uptake in rat brain synaptosomes; type: biochemical; conditions: Table III
male NMRI mice = assay: Analgesic test using the phenylquinone-induced writhing test on mice; type: in vivo; conditions: 10 mg/kg intravenous
Method: The analysis of analgesic activity is carried out using the phenylquinone-induced writhing assay in mice, modified as described in the article by I. C. Hendershot and J. Forsaith ((1959) in J. Pharmacol. Exp. Ther. 125, 237-240).
For the present purpose, male NMRI mice are used having a weight of from 25 to 30 g. Groups of 10 animals per substance dose receive, 10 minutes after an intravenous dose of test substances, an intraperitoneal administration of 0.3 ml/mouse of a 0.02% strength aqueous solution of phenylquinone (phenylbenzoquinone, obtainable from Sigma, Deisenhofen; solution produced with the addition of 5% of ethanol and storage in a water bath at 45° C.). The animals are placed individually in observation cages. Using a pushbutton counter, the number of pain-induced stretching movements (so-called writhing reactions=straightening of the body accompanied by stretching of the rear extremities) was counted over a period of from 5 to 20 minutes following the administration of phenylquinone. The control is provided by animals receiving only physiological saline. All substances are tested using the standard dosage of 10 mg/kg.

human μ-opioid receptor = human μ-opioid receptor (Homo sapiens, UniProt P35372); assay: Affinity to the human μ-opioid receptor ([3H]-naloxone displacement); conditions: for inhibition at 1 µM: read-out: μ (Naloxone), 1 μM, % inhibition; for μ (Naloxone), 1 μM, % inhibition: Table II, [3H]-naloxone
Chain of human μ-opioid receptor (P35372 whole entry): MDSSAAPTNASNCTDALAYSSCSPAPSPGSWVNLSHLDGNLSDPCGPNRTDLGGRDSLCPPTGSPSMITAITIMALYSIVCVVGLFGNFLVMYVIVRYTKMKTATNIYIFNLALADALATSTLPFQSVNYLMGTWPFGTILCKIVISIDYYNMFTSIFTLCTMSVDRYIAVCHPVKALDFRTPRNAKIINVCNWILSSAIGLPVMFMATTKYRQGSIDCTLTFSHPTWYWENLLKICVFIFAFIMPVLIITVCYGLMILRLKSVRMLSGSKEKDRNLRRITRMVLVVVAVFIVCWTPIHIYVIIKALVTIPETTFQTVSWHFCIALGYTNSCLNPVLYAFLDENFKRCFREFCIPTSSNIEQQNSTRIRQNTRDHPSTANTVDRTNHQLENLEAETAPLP
Method: The receptor affinity to the human μ-opioid receptor is determined in a homogeneous batch in microtiter plates. For this purpose, dilution series of the substances to be tested are incubated at room temperature for 90 minutes in a total volume of 250 μL with a receptor membrane preparation (15-40 μg of protein/250 μL of incubation batch) of CHO-K1 cells which express the human μ-opioid receptor (RB-HOM receptor membrane preparation supplied by NEN, Zaventem, Belgium) in the presence of 1 nmol/L of the radioactive ligand [^3H]-naloxone (NET 719, supplied by NEN, Zaventem, Belgium), and of 1 mg of WGA-SPA beads (wheat germ agglutinin SPA beads supplied by Amersham/Pharmacia, Freiburg, Germany). As incubation buffer, 50 mmol/L of tris HCl supplemented with 0.05% (weight/volume) of sodium azide and with 0.06% (weight/volume) of bovine serum albumin is used. For determination of the nonspecific binding, 25 μmol/L of naloxone are added. On completion of the ninety-minute incubation time, the microtiter plates are centrifuged for 20 minutes at 1000 g and the radioactivity is measured in a β-counter (Microbeta-Trilux, supplied by PerkinElmer Wallac, Freiburg, Germany).
Based on the percentage displacement produced by different concentrations of the test substances, IC50 inhibitory concentrations are calculated which cause a 50 percent displacement of the radioactive ligand. As a result of recalculation using the Cheng-Prusoff relationship, the Ki values for the test substances can be obtained, as described in the publication of Y. Cheng, W. H. Prusoff, 1973, Biochem. Pharmacol., 22, pages 3099-3108.

T1 sequence (P31652 whole entry): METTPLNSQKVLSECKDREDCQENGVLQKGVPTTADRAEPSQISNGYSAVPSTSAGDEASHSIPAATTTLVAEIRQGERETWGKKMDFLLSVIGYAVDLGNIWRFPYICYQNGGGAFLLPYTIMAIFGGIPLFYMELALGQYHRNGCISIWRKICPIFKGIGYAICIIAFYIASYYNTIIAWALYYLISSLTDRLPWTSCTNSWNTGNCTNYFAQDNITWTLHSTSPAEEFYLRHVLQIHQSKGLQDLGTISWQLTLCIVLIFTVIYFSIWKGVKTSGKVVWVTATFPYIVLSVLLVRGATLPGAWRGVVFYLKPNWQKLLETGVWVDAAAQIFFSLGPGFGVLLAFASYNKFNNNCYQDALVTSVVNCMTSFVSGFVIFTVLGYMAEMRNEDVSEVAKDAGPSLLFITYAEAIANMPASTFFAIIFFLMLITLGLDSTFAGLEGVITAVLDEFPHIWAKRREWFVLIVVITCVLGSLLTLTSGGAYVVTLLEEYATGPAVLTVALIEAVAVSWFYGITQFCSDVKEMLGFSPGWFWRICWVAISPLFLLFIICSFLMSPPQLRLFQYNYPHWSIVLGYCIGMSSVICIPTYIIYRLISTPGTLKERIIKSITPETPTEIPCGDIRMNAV

SMILES	BTX inhibition ([1]; Table III)	inhibition at 1 µM (5-HT transporter; Table III) [%]	Uptake (NA), rat, 10 μM, % inhibition (NA transporter) [%]	further results
CCOC(=O)CN1C(=O)C(Cc2ccccc2)NC12CCN(C(=O)c1ccc(NC(C)=O)cc1)CC2 (stereo not drawn) [Example 256, Ethyl [8-(4-acetylaminobenzoyl)-3-benzyl-2-oxo-1,4,8-triazaspiro[4,5]dec-1-yl]acetate]	48	94	57	
CN1C(=O)C(Cc2ccccc2)NC12CCN(C(=O)CC(C)(C)C)CC2 (stereo not drawn) [Example 126, 3-Benzyl-8-(3,3-dimethylbutyryl)-1-methyl-1,4,8-triazaspiro[4,5]decan-2-one]	34		44	
CCC(CC)C(=O)N1CCC2(CC1)NC(=O)[C@H](Cc1ccccc1)N2.Cl [Example 2, 3-(S)-Benzyl-8-(2-ethylbutyryl)-1,4,8-triazaspiro[4,5]decan-2-one hydrochloride]				% Inhibition of the writhing reaction (Dosage in mg/kg intravenous) (male NMRI mice): 51 (10) %
C#CCN1C(=O)C(CC(C)C)NC12CCN(C(=O)COc1ccc(Cl)cc1)CC2 (stereo not drawn) [Example 104, 8-[2-(4-Chlorophenoxy)acetyl]-3-isobutyl-1-prop-2-ynyl-1,4,8-triazaspiro[4,5]decan-2-one]	41	48	36	
CC(C)CC1NC2(CCN(C(=O)c3cccc(N(C)C)c3)CC2)N(Cc2ccccc2C#N)C1=O (stereo not drawn) [Example 111, 2-[8-(3-Dimethylaminobenzoyl)-3-isobutyl-2-oxo-1,4,8-triazaspiro[4,5]dec-1-ylmethyl]benzonitrile]	42	58	38	
CCOc1ccccc1C(=O)N1CCC2(CC1)NCC(=O)N2Cc1ccccc1F [Example 280, 8-(2-Ethoxybenzoyl)-1-(2-fluorobenzyl)-1,4,8-triazaspiro[4,5]decan-2-one]	30	60	35	
C=CCN1C(=O)C(C(C)C)NC12CCN(C(=O)c1ccc(-c3ccccc3)cc1)CC2 (stereo not drawn) [Example 265, 1-Allyl-8-(biphenyl-4-carbonyl)-3-isopropyl-1,4,8-triazaspiro[4,5]decan-2-one]	34		32	
CCOC(=O)CN1C(=O)C(Cc2ccccc2)NC12CCN(C(=O)c1ccc(-c3ccccc3)cc1)CC2 (stereo not drawn) [Example 266, Ethyl [3-benzyl-8-(biphenyl-4-carbonyl)-2-oxo-1,4,8-triazaspiro[4,5]dec-1-yl]acetate]	57	94	38	
COc1ccccc1C(=O)N1CCC2(CC1)NC(Cc1ccccc1)C(=O)N2Cc1ccccc1F (stereo not drawn) [Example 274, 3-Benzyl-1-(2-fluorobenzyl)-8-(2-methoxybenzoyl)-1,4,8-triazaspiro[4,5]decan-2-one]	85	97	64	
CCC(CC)C(=O)N1CCC2(CC1)N[C@@H](Cc1ccccc1)C(=O)N2Cc1ccc(F)cc1.Cl (racemic) [Example 31, 3-(S,R)-benzyl-8-(2-ethylbutyryl)-1-(4-fluorobenzyl)-1,4,8-triazaspiro[4,5]decan-2-one hydrochloride]				BTX inhibition ([1]; Table II): 61; Uptake 5-HT, rat, 1 μM, % inhibition (5-HT transporter; Table II): 34%; % Inhibition of the writhing reaction (Dosage in mg/kg intravenous) (male NMRI mice): 36 (10) %
CN1C(=O)C(Cc2ccccc2)NC12CCN(C(=O)COCc1ccccc1)CC2 (stereo not drawn) [Example 141, 3-Benzyl-8-(2-benzyloxyacetyl)-1-methyl-1,4,8-triazaspiro[4,5]decan-2-one]	45		36	
Cl.O=C(COc1ccccc1)N1CCC2(CC1)N[C@@H](Cc1ccccc1)C(=O)N2Cc1ccccc1 [Example 57, 1,3-(S)-dibenzyl-8-(2-phenoxyacetyl)-1,4,8-triazaspiro[4,5]decan-2-one hydrochloride]				BTX inhibition ([1]; Table II): 44; inhibition at 1 µM (5-HT transporter; Table II): 72%; inhibition at 1 µM (human μ-opioid receptor): 60%
Cl.O=C(COc1ccc(Cl)cc1)N1CCC2(CC1)N[C@@H](Cc1ccccc1)C(=O)N2Cc1ccccc1 [Example 55, 1,3-(S)-dibenzyl-8-[2-(4-chlorophenoxy)acetyl]-1,4,8-triazaspiro[4,5]decan-2-one hydrochloride]				BTX inhibition ([1]; Table II): 64; % Inhibition of the writhing reaction (Dosage in mg/kg intravenous) (male NMRI mice): 45 (10) %
Cl.O=C(c1ccc(Cl)cc1)N1CCC2(CC1)N[C@@H](Cc1ccccc1)C(=O)N2Cc1ccccc1 (racemic) [Example 29, 1,3-(S,R)-dibenzyl-8-(4-chlorobenzoyl)-1,4,8-triazaspiro[4,5]decan-2-one hydrochloride]				BTX inhibition ([1]; Table II, hydrochloride): 65 and 60; Uptake 5-HT, rat, 1 μM, % inhibition (5-HT transporter; Table II, hydrochloride): 80% and 45%; μ (Naloxone), 1 μM, % inhibition (human μ-opioid receptor): 38%
CCOC(=O)CN1C(=O)C(CCSC)NC12CCN(C(=O)c1ccc(C(C)(C)C)cc1)CC2 (stereo not drawn) [Example 297, Ethyl [8-(4-tert-butylbenzoyl)-3-(2-methylsulfanylethyl)-2-oxo-1,4,8-triazaspiro[4,5]dec-1-yl]acetate]	36		32	
CC(C)CC1NC2(CCN(C(=O)c3ccc4c(c3)OCO4)CC2)N(Cc2c(Cl)cccc2Cl)C1=O (stereo not drawn) [Example 264, 8-(Benzo[1,3]dioxole-5-carbonyl)-1-(2,6-dichlorobenzyl)-3-isobutyl-1,4,8-triazaspiro[4,5]decan-2-one]	63		36	
CSCCC1NC2(CCN(C(=O)c3cccnc3Oc3ccccc3)CC2)N(Cc2ccccc2[N+](=O)[O-])C1=O (stereo not drawn) [Example 298, 3-(2-Methylsulfanylethyl)-1-(2-nitrobenzyl)-8-(2-phenoxypyridin-3-carbonyl)-1,4,8-triazaspiro[4,5]decan-2-one]	48	34	30	
CC(C)CC1NC2(CCN(C(=O)c3cccnc3Cl)CC2)N(Cc2ccc(F)cc2)C1=O (stereo not drawn) [Example 118, 8-(2-Chloropyridin-3-carbonyl)-1-(4-fluorobenzyl)-3-isobutyl-1,4,8-triazaspiro[4,5]decan-2-one]	44	38	30	
C=CCCC(=O)N1CCC2(CC1)NCC(=O)N2Cc1ccccc1F [Example 287, 1-(2-Fluorobenzyl)-8-pent-4-enoyl-1,4,8-triazaspiro[4,5]decan-2-one]	32	41	41	
CN(C)c1cccc(C(=O)N2CCC3(CC2)NC(Cc2ccccc2)C(=O)N3Cc2ccccc2)c1 (stereo not drawn) [Example 99, 1,3-Dibenzyl-8-(3-dimethylaminobenzoyl)-1,4,8-triazaspiro[4,5]decan-2-one]	66	79	42	
Cl.O=C(c1ccc(C(F)(F)F)c(F)c1)N1CCC2(CC1)N[C@@H](Cc1ccccc1)C(=O)N2Cc1ccccc1 [Example 53, 1,3-(S)-dibenzyl-8-(3-fluoro-4-trifluoromethylbenzoyl)-1,4,8-triazaspiro[4,5]decan-2-one hydrochloride]				BTX inhibition ([1]; Table II): 48; % Inhibition of the writhing reaction (Dosage in mg/kg intravenous) (male NMRI mice): 30 (10) %
CCOC(=O)C(C)(C)C(=O)N1CCC2(CC1)NC(CCSC)C(=O)N2Cc1ccccc1[N+](=O)[O-] (stereo not drawn) [Example 331, Ethyl 1,1-dimethyl-2-[3-(2-methylsulfanylethyl)-1-(2-nitrobenzyl)-2-oxo-1,4,8-triazaspiro[4,5]dec-8-yl]-2-oxo-acetate]	46		38	Uptake 5-HT, rat, 1 μM, % inhibition (5-HT transporter; Table III): 58%
CCOC(=O)CCC(=O)N1CCC2(CC1)NCC(=O)N2Cc1ccccc1F [Example 270, Ethyl 4-[1-(2-fluorobenzyl)-2-oxo-1,4,8-triazaspiro[4,5]dec-8-yl]-4-oxo-butanate]	33	31	37	
O=C(c1ccc2nonc2c1)N1CCC2(CC1)NCC(=O)N2Cc1ccccc1F [Example 304, 8-(Benzo[1,2,5]oxadiazole-5-carbonyl)-1-(2-fluorobenzyl)-1,4,8-triazaspiro[4,5]decan-2-one]	33	34	37	
CCC(CC)C(=O)N1CCC2(CC1)N[C@@H](Cc1ccccc1)C(=O)N2Cc1ccccc1.Cl [Example 25, 1,3-(S)-dibenzyl-8-(2-ethylbutyryl)-1,4,8-triazaspiro[4,5]decan-2-one hydrochloride]				BTX inhibition ([1]; Table II): 47; inhibition at 1 µM (5-HT transporter; Table II): 66%; inhibition at 1 µM (human μ-opioid receptor): 66%; % Inhibition of the writhing reaction (Dosage in mg/kg intravenous) (male NMRI mice): 42 (10) %
Cl.O=C1NC2(CCN(C(=O)c3ccc(Cl)cc3)CC2)N[C@H]1Cc1ccccc1 (racemic) [Example 10, 3-(S,R)-Benzyl-8-(4-chlorobenzoyl)-1,4,8-triazaspiro[4,5]decan-2-one hydrochloride]				BTX inhibition ([1]; Table II): 53; μ (Naloxone), 1 μM, % inhibition (human μ-opioid receptor): 94%
